{"source": "paper PMC5344956", "about": "(Cancer Chemotherapy and Pharmacology, 2017)", "assay": "Metabolite characterization by LC/MS/MS in human plasma, urine, and feces", "conditions": "human plasma, urine, feces; LC/MS/MS", "protocol": "The remaining eluate stream of 0.16 mL/min from the HPLC runs was diverted to the inlet of the mass spectrometer. The samples were analyzed using a heated electrospray ionization probe. Full-scan positive ion MS data were collected using Finnigan Exactive (MS^1) or Q-Exactive (MS^1 and MS^2) mass spectrometers (Thermo Fisher Scientific Inc.) Exact conditions are described in the Online Resource 3.\nFinnigan Exactive or Q-Exactive mass spectrometers (Thermo Fisher Scientific Inc., San Jose, CA) were used to collect full scan MS^1 and MS^2 data."}
{"smiles": "Cc1ccc(C(=O)Nc2ccc(CN3CCN(C)CC3)c(C(F)(F)F)c2)cc1C#Cc1cnc2cccnn12.Cl", "note": "[Ponatinib, 3-(imidazo[1,2-b]pyridazin-3-ylethynyl)-4-methyl-N-(4-((4-methylpiperazin-1-yl)methyl)-3-(trifluoromethyl)phenyl)benzamide hydrochloride]", "values": [{"measurement": "Matrix (in which the metabolite was found)", "value": "P, U, F"}]}
